Values quoted from earlier work as cited in PMC3066546, “Development of modified nucleosides that have supremely high anti-HIV activity and low toxicity and prevent the emergence of resistant HIV mutants” (Proceedings of the Japan Academy. Series B, Physical and …, 2011).
Read-outs that look alike come from different tables or passages of the source. One block for each compound: values may come before it.

Legend:
HIV = tested on: HIV; set-up: method as in PMID 7764216; conditions: Table 1; for EC50: anti-HIV
[1] = cytotoxic concentration, Table 1
HIV-1LAI = conditions: MTT assay, MT-4 cells
HXB2 (wild type HIV) = tested on: HXB2 (wild type HIV); set-up: method as in PMID 11087576, PMID 11577734, PMID 15200030; conditions: MAGI assay
M184V drug-resistant HIV = tested on: M184V drug-resistant HIV; set-up: method as in PMID 11087576, PMID 11577734, PMID 15200030; conditions: MAGI assay
M184I drug-resistant HIV = tested on: M184I drug-resistant HIV; set-up: method as in PMID 11087576, PMID 11577734, PMID 15200030; conditions: MAGI assay
[2] = tested on: 41/69/ 125/SG drug-resistant HIV; set-up: method as in PMID 11087576, PMID 11577734, PMID 15200030; conditions: MAGI assay
[3] = tested on: MDR (multidrug-resistant HIV); conditions: MAGI assay
HIV-1wild = tested on: HIV-1wild; set-up: method as in PMID 18487070; conditions: Table 7; read-out: Anti-HIV activity (MAGI assay, µg) HIV-1wild
HIV-1MDR = tested on: HIV-1MDR; set-up: method as in PMID 18487070; conditions: Table 7; read-out: Anti-HIV activity (MAGI assay, µg) HIV-1MDR
HIV-1M184V = tested on: HIV-1M184V; set-up: method as in PMID 18487070; conditions: Table 7; read-out: Anti-HIV activity (MAGI assay, µg) HIV-1M184V
KH65R drug-resistant HIV = tested on: KH65R drug-resistant HIV; set-up: method as in PMID 11087576, PMID 11577734, PMID 15200030; conditions: MAGI assay
L74V drug-resistant HIV = tested on: L74V drug-resistant HIV; set-up: method as in PMID 11087576, PMID 11577734, PMID 15200030; conditions: MAGI assay

Compound: C[C@@]1(CO)CC[C@H](n2ccc(N)nc2=O)O1 [C00003 Cy]
SI (CC50/EC50) (HIV): 1
EC50 (HIV): 27000 nM
CC50 [1]: 27000 nM

Compound: Nc1ccn([C@@H]2CS[C@H](CO)O2)c(=O)n1 [Compound 3TC, 2′,3′-dideoxy-3′-thia-L-cytidine, reference compound]
EC50 (HIV-1LAI; Table 2): 100 nM
EC50 (HXB2 (wild type HIV)): 710 nM
EC50 (M184V drug-resistant HIV): > 100000 nM
EC50 (M184I drug-resistant HIV): > 100000 nM
EC50 [2]: 9900 nM
EC50 [3]: 1100 nM
EC50 (HIV-1wild): 1000 nM
EC50 (HIV-1MDR): 2800 nM
EC50 (HIV-1M184V): > 100000 nM
CC50 (MT-4 cells): > 100000 nM
CC50 (Hela cells): > 100000 nM

Compound: C[C@]1(CO)O[C@@H](n2cnc3c(N)ncnc32)C[C@@H]1O [C00001 Ad, 4′-C-methyl-2′-deoxyadenosine]
SI (CC50/EC50) (HIV): 1.0
EC50 (HIV): 2600 nM
EC50 (HIV-1LAI; Table 2): 2600 nM
CC50 [1]: 2600 nM
CC50 (MT-4 cells; Table 2): 2600 nM

Compound: Nc1ccn([C@H]2CC[C@@H](CO)O2)c(=O)n1 [ddC, reference compound]
EC50 (HXB2 (wild type HIV)): 200 nM
EC50 (KH65R drug-resistant HIV): 3000 nM
EC50 (L74V drug-resistant HIV): 1500 nM
EC50 (M184V drug-resistant HIV): 2200 nM
EC50 [2]: 1300 nM
EC50 [3]: 5500 nM
CC50 (Hela cells): > 100000 nM

Compound: Cc1cn([C@H]2C[C@H](O)[C@](CO)(CN=[N+]=[N-])O2)c(=O)[nH]c1=O [4′-C-azidomethylthymidine]
EC50 (HIV-1LAI; Table 2): 2100 nM
CC50 (MT-4 cells; Table 2): 333000 nM

Compound: CC[C@]1(CO)O[C@@H](n2cc(C)c(=O)[nH]c2=O)C[C@@H]1O [4′-C-ethylthymidine]
EC50 (HIV-1LAI; Table 2): > 400000 nM

Compound: CCC[C@]1(CO)O[C@@H](n2cc(C)c(=O)[nH]c2=O)C[C@@H]1O [4′-C-propylthymidine]
EC50 (HIV-1LAI; Table 2): > 100000 nM
CC50 (MT-4 cells; Table 2): > 100000 nM

Compound: [N-]=[N+]=N[C@]1(CO)O[C@@H](n2cnc3c(N)ncnc32)C[C@@H]1O [4′-C-azido-2′-deoxyadenosine]
EC50 (HIV-1LAI; Table 2): 130 nM
CC50 (MT-4 cells; Table 2): 50000 nM

Compound: C#C[C@]1(CO)O[C@@H](n2cnc3c(N)nc(Cl)nc32)C[C@@H]1O [4′Ed2ClA, 2′-deoxy-4′-C-ethynyl-2-chloroadenosine]
EC50 (HIV-1wild): 1.9 nM
EC50 (HIV-1MDR): 8.4 nM
EC50 (HIV-1M184V): 10 nM

Compound: C#C[C@]1(CO)O[C@@H](n2cc(C)c(=O)[nH]c2=O)[C@@H](O)[C@@H]1O [4′-C-ethynylarabinofuranosylthymine]
EC50 (HIV-1LAI; Table 2): 119000 nM
CC50 (MT-4 cells): > 400000 nM

Compound: Cc1cn([C@H]2C[C@H](O)[C@@](C)(CO)O2)c(=O)[nH]c1=O [C00001 Th, 4′-C-methylthymidine]
EC50 (HIV): 7200 nM
EC50 (HIV-1LAI; Table 2): 7200 nM
CC50 [1]: 104000 nM
CC50 (MT-4 cells; Table 2): 104000 nM

Compound: C#C[C@]1(CO)O[C@@H](n2cc(C)c(=O)[nH]c2=O)C[C@@H]1O [4′-C-ethynylthymidine]
EC50 (HIV-1LAI; Table 2): 830 nM
CC50 (MT-4 cells; Table 2): > 400000 nM

Second part, led by results:

EC50 (HIV-1LAI; Table 3): 51 nM
Compound: N#C[C@]1(CO)O[C@@H](n2cnc3c(N)ncnc32)C[C@@H]1O [C00004 A]
CC50 (MT-4 cells; Table 3): 12000 nM

EC50 (HIV-1LAI; Table 2): 6.8 nM
Compound: Nc1ccn([C@H]2C[C@H](O)[C@](CO)(CF)O2)c(=O)n1 [4′-C-fluoromethyl-2′-deoxycytidine]
CC50 (MT-4 cells; Table 2): 120 nM

EC50 (HIV-1LAI; Table 3): 0.79 nM
Compound: N#C[C@]1(CO)O[C@@H](n2cnc3c(N)nc(N)nc32)C[C@@H]1O [C00004 2AA]
CC50 (MT-4 cells; Table 3): 34 nM

EC50 (HIV-1LAI; Table 2): 1.2 nM
Compound: N#C[C@]1(CO)O[C@@H](n2ccc(N)nc2=O)C[C@@H]1O [4′-C-cyano-2′-deoxycytidine]
CC50 (MT-4 cells; Table 2): 170 nM

EC50 (HIV-1LAI; Table 2): 4 nM
Compound: [N-]=[N+]=N[C@]1(CO)O[C@@H](n2ccc(N)nc2=O)C[C@@H]1O [4′-C-azido-2′-deoxycytidine]
CC50 (MT-4 cells; Table 2): 210 nM

EC50 (HIV-1LAI; Table 3): 0.188 nM
Compound: N#C[C@]1(CO)O[C@@H](n2cnc3c(=O)[nH]c(N)nc32)C[C@@H]1O [C00004 G]
CC50 (MT-4 cells; Table 3): 34 nM
